Results: patent US4010261A, “Method to prevent reproduction with [Des-Gly]^10 -GN-RH nonadeptide amide analogs in position” (Abbott Laboratories, priority 1974, dated 1977)

Key:
pregnant rats = test: Implantation in pregnant rats with various compounds under Compound N (Examples 7-10); assay type: in vivo, rat
Experimental: a) number of animals with implants/number of animals treated
b) mean implantation sites (based on those with implantation sites)
c) viable fetuses/total number of fetuses (successful pregnancy)
In this experiment, the activity of various compounds encompassed under Compound N are desmonstrated. Groups of 8 - 10 pregnant rats were injected subcutaneously b.i.d. with 0.5 ml. of the medium shown in Example 1 containing the compound and dose identified below. The results are expressed as explained in Example 2.

[1] = tested on: rats treated with Compound N; test: Exogenous estradiol given to Compound N-treated pregnant rats; assay type: in vivo, rat; details: estradiol 0.1 μg. s.c. in sesame oil on days 4 and 5 of gestation, rats treated with Compound N days 2-6
Experimental: More specifically, if estradiol is subcutaneously given to rats treated with Compound N (days 2 - 6 of gestation) on days 4 and 5 of gestation at a dose of as little as 0.1 μg. each (dissolved in sesame oil), implantation already takes place in 3 of 8 animals, producing 100% viable embryos.

CCNC(=O)[C@@H]1CCCN1C(=O)[C@H](CCCNC(=N)N)NC(=O)[C@H](CC(C)C)NC(=O)[C@@H](C)NC(=O)[C@H](Cc1ccc(O)cc1)NC(=O)[C@H](CO)NC(=O)[C@H](Cc1c[nH]c2ccccc12)NC(=O)[C@H](Cc1c[nH]cn1)NC(=O)[C@@H]1CCC(=O)N1 [Example 8, L-pGlu-L-His-L-Trp-L-Ser-L-Tyr-X-L-Leu-L-Arg-L-Pro-NH-R]
a: number of animals with implants/number of animals treated (pregnant rats; Dose 10 μg. s.c. b.i.d.): 0/10 | b: mean implantation sites (based on those with implantation sites) (pregnant rats; Dose 10 μg. s.c. b.i.d.): 0 | c: viable fetuses/total number of fetuses (successful pregnancy) (pregnant rats; Dose 10 μg. s.c. b.i.d.): 0%

CNC(=O)[C@@H]1CCCN1C(=O)[C@H](CCCNC(=N)N)NC(=O)[C@H](CC(C)C)NC(=O)[C@@H](CC(C)C)NC(=O)[C@H](Cc1ccc(O)cc1)NC(=O)[C@H](CO)NC(=O)[C@H](Cc1c[nH]c2ccccc12)NC(=O)[C@H](Cc1c[nH]cn1)NC(=O)[C@@H]1CCC(=O)N1 [Example 10, L-pGlu-L-His-L-Trp-L-Ser-L-Tyr-X-L-Leu-L-Arg-L-Pro-NH-R]
a: number of animals with implants/number of animals treated (pregnant rats; Dose 25 μg. s.c. b.i.d.): 0/10 | b: mean implantation sites (based on those with implantation sites) (pregnant rats; Dose 25 μg. s.c. b.i.d.): 0 | c: viable fetuses/total number of fetuses (successful pregnancy) (pregnant rats; Dose 25 μg. s.c. b.i.d.): 0%

C[C@]12CC[C@@H]3c4ccc(O)cc4CC[C@H]3[C@@H]1CC[C@@H]2O [estradiol]
animals in which implantation takes place [1]: 3 of 8 | viable embryos [1]: 100%
